Marks after values point to notes of the source that are not given here.
What was measured:
Type in all cases: in vivo
Conditions in all cases: 100 = 100% disease control
Alternaria solani = assay: Test D: tomato early blight, sprayed the day before inoculation, visual disease rating
Summary of the method: (§1)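 Ratings reflect a 200 ppm spray (≈500 g/ha) unless marked as 40 ppm. Plants were sprayed to run-off. The spray suspension was acetone/purified water 50/50 containing 250 ppm Trem 014, after first dissolving compound in acetone at 3% of final volume.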

[1] = tested on: Erysiphe graminis f. sp. tritici; assay: Test J: wheat powdery mildew on wheat seedlings, sprayed the day before inoculation, visual disease rating
Summary of the method: as §1

Septoria nodorum = assay: Test F: wheat glume blotch on wheat seedlings, sprayed the day before inoculation, visual disease rating
Summary of the method: as §1

[2] = tested on: Puccinia recondita f. sp. tritici; assay: Test H: wheat leaf rust, test suspension sprayed after inoculation of wheat seedlings, visual disease rating
Summary of the method: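 Wheat seedlings inoculated with P. recondita spores, held 24 h saturated at 20 °C, then 2 days in growth chamber at 20 °C; compound suspension (acetone/water with Trem 014) sprayed to run-off afterwards. Rated visually; 200 ppm (≈500 g/ha) unless marked *, which denotes 40 ppm.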

Botrytis cinerea = assay: Test C: tomato Botrytis on tomato seedlings, sprayed the day before inoculation, visual disease rating
Summary of the method: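 Disease scored by eye on tomato seedlings inoculated with Botrytis cinerea a day after treatment. Treatment was a run-off spray at 200 ppm (equivalent to 500 g/ha), or 40 ppm where marked, in acetone/water carrying 250 ppm Trem 014.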

[3] = tested on: Puccinia recondita f. sp. tritici; assay: Test I: wheat leaf rust on wheat seedlings, sprayed the day before inoculation, visual disease rating
Summary of the method: as §1

Septoria tritici = assay: Test G: wheat leaf blotch on wheat seedlings, sprayed the day before inoculation, visual disease rating
Summary of the method: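 Wheat seedlings were sprayed to run-off with test suspension (acetone/water plus surfactant), generally 200 ppm (≈500 g/ha), or 40 ppm where marked. Septoria tritici spores were inoculated the next day; plants were held 48 h at 24°C in saturated atmosphere, then 19 days at 20°C before visual disease rating.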

[4] = 200 ppm, 0 = no control relative to controls
[5] = 40 ppm (marked *), 0 = no control

| SMILES | Test D disease control rating (Alternaria solani; [4]) | Test J disease control rating [1, 4] | Test F disease control rating (Septoria nodorum; [4]) | Test H disease control rating [2, 4] | Test C disease control rating (Botrytis cinerea; [4]) | Test I disease control rating [3, 4] | Test G disease control rating (Septoria tritici; [4]) | other results |
| --- | --- | --- | --- | --- | --- | --- | --- | --- |
| Cc1ccc(-n2c(Cl)nc(C)c2-c2c(F)ccc(F)c2F)cc1 [compound 496] |  |  |  |  |  |  |  | Test D disease control rating (Alternaria solani; 40 ppm (marked *)): 99* %; Test J disease control rating ([1]; 40 ppm (marked *)): 97* %; Test F disease control rating (Septoria nodorum; 40 ppm (marked *)): 0* %; Test H disease control rating ([2]; 40 ppm (marked *)): 0* %; Test C disease control rating (Botrytis cinerea; 40 ppm (marked *)): 93* %; Test I disease control rating ([3]; 40 ppm (marked *)): 0* %; Test G disease control rating (Septoria tritici; 40 ppm (marked *)): 6* % |
| COc1cc(OC)c(Cl)c(-n2cnc(Br)c2-c2ccc(Cl)cc2F)c1 [compound 641] | 96% | 83% | 94% | 100% | 95% | 100% | 99% |  |
| COc1cc(F)c(-c2c(Cl)nc(Br)n2-c2ccc(C)cc2F)c(F)c1 [compound 654] |  |  |  |  |  |  |  | Test D disease control rating (Alternaria solani; 40 ppm (marked *)): 99* %; Test J disease control rating ([1]; 40 ppm (marked *)): 100* %; Test F disease control rating (Septoria nodorum; 40 ppm (marked *)): 91* %; Test H disease control rating ([2]; 40 ppm (marked *)): 100* %; Test C disease control rating (Botrytis cinerea; 40 ppm (marked *)): 100* %; Test I disease control rating ([3]; 40 ppm (marked *)): 99* %; Test G disease control rating (Septoria tritici; 40 ppm (marked *)): 98* % |
| COc1cc(F)c(-c2c(Cl)nc(C)n2-c2ccc(F)c(F)c2)c(F)c1 [compound 499] | 100% | 100% | 100% | 100% | 99% | 100% | 93% |  |
| COc1ccc(F)c(-c2c(Cl)nc(Br)n2-c2ccc(Br)cc2)c1F [compound 563] | 100% | 100% | 100% | 0% | 100% | 94% | 100% |  |
| Fc1ccc(F)c(-c2c(Br)nc(Cl)n2-c2ccc(Cl)cc2)c1F [compound 351] | 100% | 100% | 99% | 54% | 100% | 100% | 93% |  |
| COc1ccc(F)c(-c2c(Cl)ncn2-c2ccc(Br)cc2)c1F [compound 528] | 100% | 100% | 99% | 15% | 100% | 96% | 99% |  |
| Cc1ccc(-n2c(Br)nc(Br)c2-c2c(F)ccc(F)c2F)cc1 [compound 461] |  |  |  |  |  |  |  | Test D disease control rating (Alternaria solani; 40 ppm (marked *)): 99* %; Test J disease control rating ([1]; 40 ppm (marked *)): 98* %; Test F disease control rating (Septoria nodorum; 40 ppm (marked *)): 0* %; Test H disease control rating ([2]; 40 ppm (marked *)): 0* %; Test C disease control rating (Botrytis cinerea; 40 ppm (marked *)): 99* %; Test I disease control rating ([3]; 40 ppm (marked *)): 97* %; Test G disease control rating (Septoria tritici; 40 ppm (marked *)): 94* % |
| Cc1nc(Cl)n(-c2c(F)cccc2F)c1-c1ccc(Cl)cc1 [compound 466] |  |  |  |  |  |  |  | Test D disease control rating (Alternaria solani; 40 ppm (marked *)): 100* %; Test J disease control rating ([1]; 40 ppm (marked *)): 100* %; Test F disease control rating (Septoria nodorum; 40 ppm (marked *)): 0* %; Test H disease control rating ([2]; 40 ppm (marked *)): 0* %; Test C disease control rating (Botrytis cinerea; 40 ppm (marked *)): 99* %; Test I disease control rating ([3]; 40 ppm (marked *)): 93* %; Test G disease control rating (Septoria tritici; 40 ppm (marked *)): 82* % |
| Fc1ccc(-n2c(Br)nc(Br)c2-c2c(F)ccc(F)c2F)cc1 [compound 384] |  |  |  |  |  |  |  | Test D disease control rating (Alternaria solani; [5]): 99* %; Test J disease control rating [1, 5]: 95* %; Test F disease control rating (Septoria nodorum; [5]): 0* %; Test H disease control rating [2, 5]: 0* %; Test C disease control rating (Botrytis cinerea; [5]): 100* %; Test I disease control rating [3, 5]: 67* %; Test G disease control rating (Septoria tritici; [5]): 95* % |
| COc1ccc(F)c(-c2c(Cl)nc(C)n2-c2ccc(Cl)c(F)c2)c1F [compound 393] | 100% | 100% | 99% | 79% | 99% | 99% | 95% |  |
| Cc1nc(Br)c(Cc2ccc(F)cc2F)n1-c1ccc(Cl)cc1 [compound 404] | 0% | 98% | 0% | 0% | 100% | 97% | 99% |  |
| COc1ccc(Cl)c(-c2c(Cl)nc(Cl)n2-c2ccc(Cl)cc2)c1F [compound 518] | 99% | 100% | 99% | 0% | 100% | 98% | 98% |  |
| COc1cc(F)c(-c2c(Cl)nc(C)n2-c2ccc(C)c(C#N)c2)c(F)c1 [compound 613] |  |  |  |  |  |  |  | Test D disease control rating (Alternaria solani; 40 ppm (marked *)): 100* %; Test J disease control rating ([1]; 40 ppm (marked *)): 21* %; Test F disease control rating (Septoria nodorum; 40 ppm (marked *)): 64* %; Test H disease control rating ([2]; 40 ppm (marked *)): 15* %; Test C disease control rating (Botrytis cinerea; 40 ppm (marked *)): 99* %; Test I disease control rating ([3]; 40 ppm (marked *)): 97* %; Test G disease control rating (Septoria tritici; 40 ppm (marked *)): 99* % |
| Cc1ncn(-c2ccc(Cl)c(F)c2)c1-c1sc(Cl)nc1Cl [compound 377] | 0% | 33% | 0% | 0% | 0% | 27% | 3% |  |
| COc1cc(F)c(-c2c(Cl)nc(Br)n2Cc2ccc(C)cc2)c(F)c1 [compound 292] |  |  |  |  |  |  |  | Test D disease control rating (Alternaria solani; 200 ppm, 0 = no control): 98%; Test J disease control rating ([1]; 200 ppm, 0 = no control): 99%; Test F disease control rating (Septoria nodorum; 200 ppm, 0 = no control): 69%; Test H disease control rating ([2]; 200 ppm, 0 = no control): 11%; Test C disease control rating (Botrytis cinerea; 200 ppm, 0 = no control): 99%; Test I disease control rating ([3]; 200 ppm, 0 = no control): 99%; Test G disease control rating (Septoria tritici; 200 ppm, 0 = no control): 93% |
| COc1cc(F)c(-c2c(C)nc(Br)n2-c2ccc(C(F)(F)F)nc2)c(F)c1 [compound 731] | 100% | 100% | 99% | 0% | 99% | 99% | 100% |  |
| COc1cc(F)c(-c2c(Cl)nc(N)n2-c2ccc(Cl)cc2)c(F)c1 [compound 638] | 99% | 56% | 55% | 0% | 99% | 95% | 99% |  |
| COC(=O)c1ccc(-n2c(Br)nc(Cl)c2-c2c(F)cccc2F)cc1 [compound 690] | 0% | 81% | 0% | 0% | 78% | 74% | 98% |  |
| COc1cc(C#N)cc(F)c1-c1c(Cl)nc(Cl)n1-c1ccc(Cl)c(F)c1 [compound 575] | 0% | 72% | 0% | 0% | 96% | 76% | 73% |  |
